We go through two compounds from article PMC11233548 (Communications Biology, 2024).

For one assay, the system named is H-RasG12V nanoclustering. Nature of the assay: H-RasG12V nanoclustering-BRET in HEK cells. Format: cell-based, human. The following applies: expression 48 h; donor:acceptor 1:5; n = 4. For orientation: Bioluminescence resonance energy transfer reports proximity on the nanometre scale.
The next assay concerns A-RBD-D75A. As to the kind of experiment: BRET-titration Gal1/A-RBD-D75A. Format: cell-based, human. The following applies: versus wild-type, n = 3.
In another assay the test system is B-Raf. As to the kind of experiment: Split-luciferase KinCon B-Raf biosensor. Format: cell-based. The following applies: expression 48 h, HEK cells; n = 3. The procedure:
HEK 293-EBNA cells were seeded in a 12-well plate (Greiner Bio-One, #665180) in 1 ml complete DMEM and grown for 24 h. The next day 0.5 µg of KinCon sensor plasmid pcDNA-RlucF1-BRAF-RlucF2 was transfected along with 0.1–0.5 µg of modulator plasmid encoding either SNAP-H-RasG12V or Gal1) using jetPRIME as per manufacturer protocol; pcDNA3.1(−) Thermo Fisher Scientific, #V79520) was used to buffer the total amount of plasmid load per well to 1 µg. After 48 h of expression cells were collected and washed in PBS. Cells from one well of the 12-well plate were resuspended in 200 µL of PBS and 2× 90 µL were pipetted into a white 96-well plate (Nunc, Thermo Fisher Scientific, #236108). Then coelenterazine h was added to a final concentration of 5 µM and the luminescence signal at 480 ± 10 nm was collected for 10 s. The basically background-free signal was normalized against the signal without modulator plasmid.

A further assay has as its target RBD of Raf proteins. Also noted: method as in PMID 27087647. The conditions noted are these: direct binding; read-out: KD, Gal1 to RBD of Raf proteins; cited from earlier work.
Another assay concerns the target Gal1. Also noted: method as in PMID 24569991, PMID 7890630. The following applies: dimerization; read-out: KD, Gal1 dimer; cited from earlier work.
A further assay concerns the target GST-B-RBD (Homo sapiens, UniProt P15056). As to the kind of experiment: Competitive fluorescence polarization, displacement of F-L5UR from GST-B-RBD. The format is binding. The following applies: competitive fluorescence polarization with F-L5UR; Fig. 2e: F-L5UR (10 nM), GST-B-RBD (15 µM); method: 5 nM F-L5UR, 200 nM RBD; pH 7.4; 30 min, ~22 °C; n = 3. On the technique in general: Fluorescence polarisation rises when a labelled molecule tumbles more slowly, as on binding a larger partner.

The next assay concerns the target T1, C-RBD (Homo sapiens, UniProt P04049).
T1 construct: GST-tagged C-Raf-RBD (residues 50–134 of human C-Raf); GST (N, cleaved yes); made in house; host or cells: E. coli BL21 Star (DE3)pLysS
Nature of the assay: Competitive fluorescence polarization, displacement of F-L5UR from C-RBD. The format is binding. The following applies: F-L5UR (5 nM), C-RBD (200 nM), pH 7.4, 30 min, ~22 °C, n = 3.

Another assay addresses T2, B-RBD (Homo sapiens, UniProt P15056).
T2 construct: GST-tagged B-Raf-RBD (residues 155–227 of human B-Raf); GST (N); made in house; host or cells: E. coli BL21 Star (DE3)pLysS
Nature of the assay: QRET assay, Eu-L5URcore binding to B-RBD. The following applies: Eu-L5URcore (29 nM), B-RBD twofold dilutions, MT2 quencher, 10 mM HEPES pH 7.4, 10 mM NaCl, 30 min, ~22 °C, time-resolved luminescence, n = 2, read-out: IC50. The procedure: The QRET assays were modified from our previously described quenching luminescence assays[69]–[71]. Ac-K-L5URcore was conjugated with nonadentate europium chelate, {2,2′,2′′,2’“-{[4′-(4’“-isothiocyanatophenyl)-2,2′,6′,2′′-terpyridine-6,6′′-diyl]bis(methylene-nitrilo)}tetrakis(acetate)}europium(III) (QRET Technologies, Finland) via the epsilon amine of the N-terminal lysine that was added to the L5UR-core peptide sequence and purified with analytical reverse-phase HPLC. The current homogeneous QRET binding assay is based on the quenching of non-bound Eu-K-L5URcore with MT2 quencher (QRET Technologies), while bound labeled peptide is luminescent. In the assay, purified B-RBD or Gal1 were twofold diluted in an assay buffer containing 10 mM HEPES pH 7.4 and 10 mM NaCl added in 5 μL to a white low-volume, round bottom 384-well plate. Eu-K-L5UR core peptide (29 nM), mixed with MT2 according to the manufacturer’s instructions in the assay buffer supplemented with 0.01% (v/v) Triton X-100, was added in 5 μL volume to wells, and incubated for 30 min at ~22 °C on a shaker. The luminescence was measured with Tecan Spark multimode microplate reader (Tecan, Austria) in time-resolved mode using λexcitation 340 ± 40 nm and λemission 620 ± 10 nm with 800 μs delay and 400 μs window times.

Residues, ends and D or L forms follow the SMILES beside them.

Sequence of GST-B-RBD (P15056 155-227): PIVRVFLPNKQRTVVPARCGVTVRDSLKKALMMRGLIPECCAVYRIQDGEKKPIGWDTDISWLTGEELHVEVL
T2 sequence (P15056 155-227): as above
Procedure for A-RBD-D75A: We employed the BRET2 system where RLuc8 and GFP2 luminophores were predominantly used as the donor and acceptor, respectively, with coelenterazine 400a as the substrate. A CLARIOstar plate reader from BMG Labtech was used for BRET and fluorescence intensity measurement. The BRET protocol was adapted as described by us[73].
In brief, 150,000–200,000 HEK293-EBNA cells were seeded per well of a 12-well plate and grown for 24 h in 1 mL of complete DMEM. The next day, the cells were transfected with ~1 µg of plasmid DNA per well using a 3 µL jetPRIME transfection reagent. For the donor saturation titration, 25 ng of the donor plasmid was transfected with an acceptor plasmid concentration ranging from 25 to 1000 ng. […]
First, the fluorescence intensity of GFP2 was measured (λexcitation 405 ± 10 nm and λemission 515 ± 10 nm), which is directly proportional to the acceptor expression (RFU). Then 10 µM of coelenterazine 400a (GoldBio, #C-320) was added to the cells, and BRET readings were recorded simultaneously at λemission 410 ± 40 nm (RLU) and 515 ± 15 nm (BRET signal). Emission intensity measured at 410 nm is directly proportional to the donor expression. The raw BRET ratio was calculated as the ratio of BRET signal/RLU. […] The relative expression was calculated as the ratio of RFU/RLU. […]

Take “Gal1: galectin-1, H-Ras nanocluster scaffold”: the “effect of Gal1 expression on H-RasG12V nanoclustering-BRET” value with H-RasG12V nanoclustering is “increased H-RasG12V nanoclustering-BRET in a dose-dependent manner”. Moreover, the “BRETtop, Gal1/A-RBD-D75A” value in the assay with A-RBD-D75A is recorded as “significantly reduced”. Also, the “luminescence signal of KinCon B-Raf biosensor” value with B-Raf is recorded as “likewise reduced the luminescence signal”. Moreover, the Kd (commonly a measure of binding affinity in units of concentration) at RBD of Raf proteins is 0.106 ± 0.04 µM; on Gal1 it was 7 µM.
Turning to `CC(=O)N[C@@H](CO)C(=O)N[C@@H](CCCNC(=N)N)C(=O)N[C@@H](CO)C(=O)N[C@@H](CO)C(=O)N[C@@H](CC(C)C)C(=O)N[C@@H](CCCNC(=N)N)C(=O)N[C@@H](CO)C(=O)N[C@@H](CCCNC(=N)N)C(=O)N[C@@H](Cc1c[nH]c2ccccc12)C(=O)NCC(=O)N[C@@H](CCCNC(=N)N)C(=O)N[C@@H](Cc1ccccc1)C(=O)N[C@@H](CC(C)C)C(=O)N[C@@H](CC(C)C)C(=O)N[C@@H](CCC(N)=O)C(=O)N[C@@H](CCCNC(=N)N)C(=O)NCC(=O)N[C@@H](CO)C(=O)N[C@@H](Cc1c[nH]c2ccccc12)C(=O)N[C@H](C(=O)NCC(=O)N1CCC[C@H]1C(=O)N[C@@H](CCCNC(=N)N)C(N)=O)[C@@H](C)O` [L5URcore] (Ac-SRSSLRSRWGRFLLQRGSWTGPR-NH2), the values for the IC50 on GST-B-RBD and on C-RBD were 41 ± 1 µM and 14 ± 6 µM, respectively. Besides, the EC50 (B-RBD binding to Eu-L5URcore) on B-RBD amounted to 18 ± 1 µM.
